# Data from patent publication US4537717A.
# How the values were obtained:
# [1] = toxicity test (LD50); conditions: mouse, in vivo, iv, mice; administered intravenously
# [2] = system: Staphylococcus aureus X1.1; format: cell-based; conditions: agar dilution; 2, 5, 17, 22 median of three tests; paired values two experiments
# [3] = system: Staphylococcus aureus V41; format: cell-based; conditions: penicillin-resistant strain; agar dilution; 2, 5, 17, 22 median of three tests; paired values two experiments
# [4] = system: Staphylococcus aureus X400; format: cell-based; conditions: methicillin-resistant strain; agar dilution; 2, 5, 17, 22 median of three tests; paired values two experiments
# [5] = system: Staphylococcus epidermidis EPI1; format: cell-based; conditions: agar dilution; 2, 5, 17, 22 median of three tests; paired values two experiments
# [6] = system: Staphylococcus epidermidis EPI2; format: cell-based; conditions: agar dilution; 2, 5, 17, 22 median of three tests; paired values two experiments
# [7] = system: Streptococcus pyogenes C203; format: cell-based; conditions: agar dilution; 2, 5, 17, 22 median of three tests; paired values two experiments
# [8] = system: Streptococcus pneumoniae Park I; format: cell-based; conditions: agar dilution; 2, 5, 17, 22 median of three tests; paired values two experiments
# [9] = system: Streptococcus pneumoniae Group D X66; format: cell-based; conditions: agar dilution; 2, 5, 17, 22 median of three tests; paired values two experiments
# [10] = system: Streptococcus Group 9960; format: cell-based, Streptococcus pneumoniae; conditions: agar dilution; 2, 5, 17, 22 median of three tests; paired values two experiments
# [11] = system: Staphylococcus aureus ATCC 6738P; assay: agar-plate disc-diffusion test; format: cell-based; conditions: suspended in water at 1 mg/ml; 7 mm disc; 24-48 hours at 25-37° C.
# [12] = system: Micrococcus luteus ATCC 9341; assay: agar-plate disc-diffusion test; format: cell-based; conditions: suspended in water at 1 mg/ml; 7 mm disc; 24-48 hours at 25-37° C.
# [13] = system: Bacillus subtilis ATCC 6633; assay: agar-plate disc-diffusion test; conditions: 7 mm disc, 24-48 hours at 25-37° C.; for Size of Zone of Inhibition (mm) B. subtilis ATCC 6633, grown on minimal nutrient agar: 1 mg/ml; for Size of Zone of Inhibition (mm) Bacillus subtilis ATCC 6633: suspended in water at 1 mg/ml
# Protocol: ^a Compounds were suspended in water at a concentration of 1 mg/ml; a
# 7 mm disc was dipped into the suspension and then placed on the agar
# surface; incubation: 24-48 hours at 25-37° C.
# ^b Grown on minimal nutrient agar
# [14] = system: Streptococcus pyogenes; assay: in vivo activity against experimental bacterial infection (ED50); conditions: mice; two doses orally; dose protecting fifty percent of test animals
Compound,LD50 [1] [mg/kg],MIC Staphylococcus aureus X1.1 [2] [µg/mL],MIC Staphylococcus aureus V41 [3] [µg/mL],MIC Staphylococcus aureus X400 [4] [µg/mL],MIC Staphylococcus epidermidis EPI1 [5] [µg/mL],MIC Staphylococcus epidermidis EPI2 [6] [µg/mL],MIC Streptococcus pyogenes C203 [7] [µg/mL],MIC Streptococcus pneumoniae Park I [8] [µg/mL],MIC Streptococcus pneumoniae Group D X66 [9] [µg/mL],MIC Streptococcus pneumoniae Group 9960 [10] [µg/mL],Size of Zone of Inhibition (mm) Staphylococcus aureus ATCC 6738P [11] [mm],Size of Zone of Inhibition (mm) Micrococcus luteus ATCC 9341 [12] [mm],"Size of Zone of Inhibition (mm) B. subtilis ATCC 6633, grown on minimal nutrient agar [13] [mm]",Size of Zone of Inhibition (mm) Bacillus subtilis ATCC 6633 [13],ED50 Streptococcus pyogenes Oral [14] [mg/kg × 2]
CCCCCCCCCC(=O)N[C@@H](Cc1c[nH]c2ccccc12)C(=O)N[C@H](CC(N)=O)C(=O)N[C@@H](CC(=O)O)C(=O)N[C@@H]1C(=O)NCC(=O)N[C@@H](CCCN)C(=O)N[C@@H](CC(=O)O)C(=O)N[C@H](C)C(=O)N[C@@H](CC(=O)O)C(=O)NCC(=O)N[C@H](CO)C(=O)N[C@@H]([C@H](C)CC(=O)O)C(=O)N[C@@H](CC(=O)c2ccccc2N)C(=O)O[C@@H]1C [Compound 4],> 300,–,–,–,–,–,–,–,–,–,–,–,–,–,–
NTrp -(n-Decanoyl)-NKyn -(n-decanoyl)-A-21978C [Compound 21],–,1,4,32,2,2,0.125,0.5,> 128,128,–,–,–,–,–
CCCCCCCC(=O)NCCC[C@@H]1NC(=O)CNC(=O)[C@@H](NC(=O)[C@H](CC(=O)O)NC(=O)[C@H](CC(N)=O)NC(=O)[C@H](Cc2c[nH]c3ccccc23)NC(=O)CCCCCCC)[C@@H](C)OC(=O)[C@H](CC(=O)c2ccccc2N)NC(=O)[C@H]([C@H](C)CC(=O)O)NC(=O)[C@@H](CO)NC(=O)CNC(=O)[C@H](CC(=O)O)NC(=O)[C@@H](C)NC(=O)[C@H](CC(=O)O)NC1=O [Compound 16],> 600,8,16,8,16,16,4,4,> 128,64,11,10,17,tr,–
CCCCCCCCCCCCCC(=O)N[C@@H](Cc1c[nH]c2ccccc12)C(=O)N[C@@H](CC(N)=O)C(=O)N[C@@H](CC(=O)O)C(=O)N[C@@H]1C(=O)NCC(=O)N[C@@H](CCCN)C(=O)N[C@@H](CC(=O)O)C(=O)N[C@H](C)C(=O)N[C@@H](CC(=O)O)C(=O)NCC(=O)N[C@H](CO)C(=O)N[C@@H]([C@H](C)CC(=O)O)C(=O)N[C@@H](CC(=O)c2ccccc2N)C(=O)O[C@@H]1C [Compound 8],62.5,–,–,2,1,2,–,–,–,–,22,21,28,21 mm,< 50
NTrp -(n-dodecyl)-NOrn -(n-dodecyl)-A-21978C nucleus [Compound 23],–,8,8,16,8,8,4,8,32,8,–,–,–,–,–
